Measured values: patent US20250084039A1, “4-SUBSTITUTED AMINOISOQUINOLINE DERIVATIVES” (Purdue Research Foundation, priority 2016, published 2025)

How the values were obtained:
[1] = test system: p-38 phosphorylation; test: Western blot in MV4-11; format: cell-based, human
Protocol: (§1) Effect of HSW630-1 on protein expression was tested in the MV4-11 leukemia cell line. Total protein extracts were prepared using RIPA buffer (SIGMA) supplemented with Complete Mini™ protease inhibitor and PHOStop™ phosphatase inhibitors (Roche). Equal amounts of proteins (up to 25 μg) were separated on 4-12% NuPAGE gels in 1×MOPS or 1×MES buffer (Invitrogen) and transferred onto PVDF membranes (Millipore). The membrane was blocked with 5% dry milk in 1×TBS/0.1% Tween 20 (TBST) for at least 1 h at room temperature and incubated with human specific primary antibodies: FLT3, Phospho-FLT3, c-Myc (Cell Signaling Technologies), KRAS (Santa Cruz), or mouse anti-β-actin (SIGMA) overnight at 4° C. The membrane was washed 3 times in TBST and incubated with a horseradish peroxidase-conjugated secondary anti-rabbit or anti-mouse antibody (Cell Signaling Technologies) for 1 h at room temperature. Blots were again washed and the signal was detected with SuperSignal West Femto Chemiluminescent Substrate (Pierce) and exposed to HyBlot CL® autoradiography film (Denville).
(§2) To determine if the phosphorylation of FLT3, SRC kinase and downstream effectors or kinases (such as STAT3 [44], STAT5 [45] and p-38 [46]) could be affected by the compounds. […] The level of SRC kinase increased over time (amount at the 48 h time point is greater than at the 6 and 24 h time points). Unfortunately the bands for the phosphorylated SRC kinase are blurred despite repeated attempts to get clearer bands. […] From the above Western analyses, it is confirmed that the proliferation inhibition of MV4-11 is due to the inhibition of FLT3 signaling axis.

[2] = test system: STAT3 phosphorylation; test: Western blot in MV4-11; format: cell-based, human
Protocol: as §1, §2

[3] = test system: STAT5 phosphorylation; test: Western blot in MV4-11; format: cell-based, human
Protocol: as §1, §2

[4] = Liver microsomal stability assay; format: in vitro ADME, mouse; settings: compared to the other analogs
[5] = test system: MV4-11; test: In vivo efficacy, NSG mice injected with MV4-11; settings: 25 mg/kg, three times per week, NSG mice with MV4-11
Protocol: Method: Six week old female NSG mice were injected intravenously with 1×10^6 logarithmically growing MV4-11 cells expressing luciferase (MV4-11). Luciferase expressing leukemia cells were imaged using the IVIS Xenogen system (Perkin Elmer, Waltham MA). On day of imaging, mice are injected IP with 150 mg/kg luciferin (Perkin Elmer, Waltham, MA), anaesthetized and then placed in imaging chamber. Maximal luminescence is recorded and then averaged among each treatment group. Ten days post cell injection, mice were imaged and then sorted into groups so that leukemic burden was similar and dosing started. Mice were dosed either with vehicle (10% DMSO/10% Tween 20/80% saline) or 25 mg/kg of compounds three times per week for the duration of the experiment. Mice were weighed and observed five days per week and imaged once per week.

[6] = biological target: CDK9 (Homo sapiens (Human), UniProt P50750); test: DiscoverX Kd Elect binding
CDK9, sequence (P50750 whole entry): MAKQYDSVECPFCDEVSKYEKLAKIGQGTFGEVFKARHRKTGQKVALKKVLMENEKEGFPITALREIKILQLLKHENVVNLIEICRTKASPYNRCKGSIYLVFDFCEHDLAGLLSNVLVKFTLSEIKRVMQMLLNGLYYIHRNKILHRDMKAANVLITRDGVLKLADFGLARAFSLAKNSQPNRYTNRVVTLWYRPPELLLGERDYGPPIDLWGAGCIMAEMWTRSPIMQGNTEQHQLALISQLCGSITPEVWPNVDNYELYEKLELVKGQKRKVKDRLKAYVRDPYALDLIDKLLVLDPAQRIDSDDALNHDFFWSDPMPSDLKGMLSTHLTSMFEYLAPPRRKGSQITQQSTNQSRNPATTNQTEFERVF
Protocol: (§3) HCK is expressed more in human primary leukemic stem cells than in human normal hematopoietic stem cells. […] Other protein kinases such as SYK, BRAF, p38 (p38MAPK), PDGFRα/β, FGFR1, RET, FLT4, Tie2 have also been linked to leukemia. […] Thus, it was tested if HSN286 and analogs were also targeting kinases that play critical roles in AML. […] (Table 9). The inhibition of the Src-kinase family could be important clinically because these kinases are downstream of FLT3. In the event of FLT3 mutation, the inhibition of the Src-family kinases could still lead to proliferation inhibition.

[7] = biological target: CDK6 (Homo sapiens (Human), UniProt Q00534); test: DiscoverX Kd Elect binding
CDK6, sequence (Q00534 whole entry): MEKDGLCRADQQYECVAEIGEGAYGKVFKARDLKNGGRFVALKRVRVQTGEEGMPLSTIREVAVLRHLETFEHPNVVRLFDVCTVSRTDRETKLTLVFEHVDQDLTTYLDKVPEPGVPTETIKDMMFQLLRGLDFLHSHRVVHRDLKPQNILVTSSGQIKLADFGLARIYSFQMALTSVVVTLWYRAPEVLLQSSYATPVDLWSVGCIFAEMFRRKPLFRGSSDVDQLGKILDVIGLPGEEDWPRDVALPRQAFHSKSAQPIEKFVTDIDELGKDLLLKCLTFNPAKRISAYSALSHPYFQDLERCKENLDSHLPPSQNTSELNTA
Protocol: as §3

[8] = test system: MRC5; test: Selectivity, proliferation IC50 (normal cell line); format: cell-based; settings: Homo sapiens, read-out: IC50 MRC5 (normal lung fibroblast)
Protocol: (§4) Cell lines were seeded into 96-well plates the afternoon prior to treatment. Approximately 18 hours later, compounds were diluted in dimethyl sulfoxide (DMSO) and added to cells. Plates were incubated for 72 hours and cells viability determined with CellTiter-Blue Cell Viability Assay (Promega, Madison, WI). Plates were read after 4 additional hours of incubation at 37° C. using plate reader (Bio-Tek, Winooski. VT). Data was analyzed and graphed using GraphPad Prism Software (Graphpad. La Jolla, CA).

[9] = test system: Kasumi-1; test: Selectivity, proliferation IC50; format: cell-based; settings: Homo sapiens, read-out: IC50 Kasumi-1 (non-FLT3 AML line)
Protocol: as §4

[10] = test system: THP1; test: Selectivity, proliferation IC50; format: cell-based; settings: Homo sapiens, THP-1; read-out: IC50 THP1 (non-FLT3-driven AML line)
Protocol: as §4

[11] = test system: HL60; test: Selectivity, proliferation IC50; format: cell-based; settings: Homo sapiens, HL-60; read-out: IC50 HL60 (acute promyelocytic leukemia)
Protocol: as §4

[12] = test system: MV4-11; test: Proliferation inhibition screen at 100 nM; format: cell-based; settings: 100 nM compound, FIG. 10
Protocol: To determine inhibition at 100 nM or […], 96-well plates were seeded the afternoon before treatment. Plates were then treated with compound diluted in dimethyl sulfoxide (DMSO) as well as a DMSO control the following day for 72 hours. After this time the plates were then treated with 10 μL of CellTiter-Blue Cell Viability Assay (Promega, Madison, WI) for 4 hours. Then the plates were read on a plate reader (Bio-Tek, Winooski, VT). Data was analyzed on Excel as a percent of the DMSO vehicle.
From these cell proliferation studies, MV4-11 appeared to be more sensitive to the compounds than the other cell lines (Table 6A). […] To identify group of compounds potently inhibiting cancer cell proliferation, a lower concentration of compounds (100 nM) were used to screen against MV4-11 (FIG. 10). From these experiments, potent amide compounds A7, A10, A15, A16, A18, A20, B15 and D30 (as indicated by ***, FIG. 10) were selected. […] Typically amides that contain basic amines are included in compound libraries to improve aqueous solubility but it appears that the presence of a basic amine in the side chain of the compounds also facilitated the actual inhibition of MV4-11 proliferation.

[13] = test system: FLT3 phosphorylation; test: Western blot in MV4-11; format: cell-based, human
Protocol: Total protein extracts were prepared using RIPA buffer (SIGMA) supplemented with Complete Mini™ protease inhibitor and PHOStop™ phosphatase inhibitors (Roche). […] The membrane was blocked with 5% dry milk in 1×TBS/0.1% Tween 20 (TBST) for at least 1 h at room temperature and incubated with human specific primary antibodies: FLT3, Phospho-FLT3, c-Myc (Cell Signaling Technologies), KRAS (Santa Cruz), or mouse anti-β-actin (SIGMA) overnight at 4° C. The membrane was washed 3 times in TBST and incubated with a horseradish peroxidase-conjugated secondary anti-rabbit or anti-mouse antibody (Cell Signaling Technologies) for 1 h at room temperature. Blots were again washed and the signal was detected with SuperSignal West Femto Chemiluminescent Substrate (Pierce) and exposed to HyBlot CL® autoradiography film (Denville).

[14] = biological target: FLT3 ITD (Homo sapiens, UniProt P36888)
FLT3 ITD, sequence (P36888 whole entry, looked up, change not shown): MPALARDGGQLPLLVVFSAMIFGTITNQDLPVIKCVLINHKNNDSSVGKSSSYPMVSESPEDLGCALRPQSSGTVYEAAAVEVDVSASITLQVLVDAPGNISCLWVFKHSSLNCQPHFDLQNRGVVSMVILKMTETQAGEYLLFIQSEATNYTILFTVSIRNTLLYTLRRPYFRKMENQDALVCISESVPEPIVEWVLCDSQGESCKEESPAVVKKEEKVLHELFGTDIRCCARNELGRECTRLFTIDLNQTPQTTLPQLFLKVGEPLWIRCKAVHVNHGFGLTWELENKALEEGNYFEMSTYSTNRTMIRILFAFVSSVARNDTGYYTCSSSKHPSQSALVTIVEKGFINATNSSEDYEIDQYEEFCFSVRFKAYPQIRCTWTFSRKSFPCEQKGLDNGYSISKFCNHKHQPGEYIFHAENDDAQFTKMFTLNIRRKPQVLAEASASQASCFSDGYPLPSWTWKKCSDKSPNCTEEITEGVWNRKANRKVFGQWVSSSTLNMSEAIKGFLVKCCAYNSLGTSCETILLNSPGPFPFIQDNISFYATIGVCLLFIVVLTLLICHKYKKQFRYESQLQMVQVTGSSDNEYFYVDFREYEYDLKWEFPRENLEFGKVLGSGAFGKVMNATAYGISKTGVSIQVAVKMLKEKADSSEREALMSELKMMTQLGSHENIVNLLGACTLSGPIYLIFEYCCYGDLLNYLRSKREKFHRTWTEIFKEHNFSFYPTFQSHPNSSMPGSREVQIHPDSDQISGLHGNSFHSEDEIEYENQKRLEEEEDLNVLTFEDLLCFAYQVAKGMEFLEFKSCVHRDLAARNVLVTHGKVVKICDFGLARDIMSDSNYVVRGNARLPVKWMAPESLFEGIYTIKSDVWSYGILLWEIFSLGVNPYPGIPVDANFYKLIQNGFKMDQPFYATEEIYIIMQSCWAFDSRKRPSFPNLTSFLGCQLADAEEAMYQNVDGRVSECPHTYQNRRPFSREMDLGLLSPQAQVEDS

[15] = biological target: FLT3 (Homo sapiens (Human), UniProt P36888); test: Inhibition of kinase enzymatic activity (IC50); format: biochemical; settings: in vitro
FLT3, sequence (P36888 27-993): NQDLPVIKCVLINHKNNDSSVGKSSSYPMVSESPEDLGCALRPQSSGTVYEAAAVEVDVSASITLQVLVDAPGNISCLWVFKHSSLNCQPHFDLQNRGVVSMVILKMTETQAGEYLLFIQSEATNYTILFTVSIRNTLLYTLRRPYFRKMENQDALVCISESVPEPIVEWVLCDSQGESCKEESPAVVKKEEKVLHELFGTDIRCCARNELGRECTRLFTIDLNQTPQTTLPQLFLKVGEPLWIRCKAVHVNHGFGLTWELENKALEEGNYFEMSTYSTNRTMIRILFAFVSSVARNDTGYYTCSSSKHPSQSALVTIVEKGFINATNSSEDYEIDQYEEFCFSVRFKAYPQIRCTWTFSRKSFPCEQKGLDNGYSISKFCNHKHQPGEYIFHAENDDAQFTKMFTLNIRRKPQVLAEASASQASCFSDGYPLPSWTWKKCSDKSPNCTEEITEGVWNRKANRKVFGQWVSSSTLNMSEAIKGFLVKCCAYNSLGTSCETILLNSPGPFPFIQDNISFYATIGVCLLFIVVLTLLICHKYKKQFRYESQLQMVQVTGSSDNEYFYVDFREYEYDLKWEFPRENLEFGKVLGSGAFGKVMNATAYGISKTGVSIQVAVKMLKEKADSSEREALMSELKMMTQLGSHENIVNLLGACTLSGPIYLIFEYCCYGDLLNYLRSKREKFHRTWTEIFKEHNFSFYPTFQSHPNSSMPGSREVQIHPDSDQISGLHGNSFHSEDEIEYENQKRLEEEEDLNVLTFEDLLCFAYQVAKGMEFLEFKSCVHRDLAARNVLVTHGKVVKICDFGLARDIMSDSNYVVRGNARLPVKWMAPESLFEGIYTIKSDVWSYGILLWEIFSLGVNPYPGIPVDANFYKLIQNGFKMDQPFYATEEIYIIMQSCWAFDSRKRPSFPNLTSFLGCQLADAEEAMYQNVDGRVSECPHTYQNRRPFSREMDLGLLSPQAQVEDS

Structure (SMILES)	p-38 phosphorylation (Western) [1]	STAT3 phosphorylation (Western) [2]	STAT5 phosphorylation (Western) [3]	stability in mouse liver microsomes [4]	in-vivo efficacy (survival) [5]	Kd [6] [nM]	Kd [7] [nM]	IC50 [8] [nM]	IC50 [9] [nM]	IC50 [10] [nM]	IC50 [11] [nM]	inhibition of MV4-11 proliferation in words [12]	FLT3 phosphorylation (Western) [13]	IC50 FLT3 ITD enzymatic inhibition [14]	IC50 FLT3 enzymatic inhibition [15]
Cc1ccc(C(=O)Nc2ccc(CN3CCN(C)CC3)c(C(F)(F)F)c2)cc1C#Cc1c(N)ncc2ccc(Cl)cc12 [HSN286]	inhibited	inhibited	inhibited	preformed much better	not efficacious	2300	28000	1270	> 10000	2320	2160	potent	inhibited	–	–
Cc1ccc(C(=O)Nc2ccc(CN3CCN(C)CC3)c(C(F)(F)F)c2)cc1C#Cc1cnc(N)c2ncccc12 [HSN356, 3-((8-amino-1,7-naphthyridin-5-yl)ethynyl)-4-methyl-N-(4-((4-methylpiperazin-1-yl)methyl)-3-(trifluoromethyl)phenyl)benzamide]	–	–	–	–	–	–	–	–	–	–	–	–	–	single digit	single digit
